{"source": "patent US20260158094A1", "about": "“COMPOSITION FOR PREVENTING, IMPROVING OR TREATING SKELETAL MUSCLE ATROPHY OR SARCOPENIA COMPRISING EXTRACT OR ISOLATED COMPOUND FROM STELLARIA DICHOTOMA AS ACTIVE INGREDIENT” (INDUSTRY-UNIVERSITY COOPERATION FOUNDATION HANYANG …, priority 2023, published 2026)", "key": {"[1]": {"test_system": "C2C12 myotubes", "test": "Dexamethasone-induced atrophy of differentiated C2C12 myotubes, myotube diameter (ImageJ)", "assay_type": "cell-based, mouse", "conditions": "for prevention of dexamethasone-induced reduction in diameter of C2C12 myotubes (in words): dexamethasone-induced atrophy", "procedure": "C2C12 mouse myoblasts used in this experiment were obtained from the American Type Culture Collection (ATCC). The cells were cultured in Dulbecco's Modified Eagle's Medium (DMEM) containing 10% fetal bovine serum (FBS), 100 U/mL penicillin, and 100 μg/mL streptomycin under conditions of 5% CO2 at 37° C. The C2C12 cells were seeded into 12-well plates and allowed to proliferate until reaching a confluence of 85-90%.\nFor induction of differentiation, the culture medium was replaced with a differentiation medium composed of DMEM supplemented with 2% horse serum, 100 U/mL penicillin, and 100 μg/mL streptomycin. The medium was replaced every two days, and differentiation was carried out for a total of 6 days.\nThe diameter of the C2C12 myotubes was measured using the ImageJ cell processing software. For each experimental group, the diameters of 50 individual myotubes were measured to calculate the average and standard error."}, "[2]": {"test_system": "C57BL/6 male mice", "test": "Muscle tissue weights (TA, EDL, GA, SOL) of mice after 48-hour fasting", "assay_type": "in vivo", "conditions": "10 mg/kg", "protocol": "(§1) C57BL/6 male mice (6 weeks old) were obtained from Koatech (Pyeongtaek, Gyeonggi-do, Korea) and acclimated for one week in the Hanyang University ERICA Laboratory Animal Center (Animal Facility Registration No. 445) before use in the experiments. The lighting cycle was set to 12 hours (07:00 to 19:00), and food and water were provided ad libitum. All animal experiments were conducted in compliance with the guidelines and regulations of the Institutional Animal Care and Use Committee (IACUC) of Hanyang University.\n(§2) After acquisition of the experimental animals and a 7-day acclimation period, the experiment was conducted.\n(§3) Body weight was measured three times in total. For the fasting group, each animal was housed individually during the fasting period. The test sample was administered twice: once at the start of the fasting period, and again 24 hours later. Experimental results are presented as means±standard deviation (SD). Statistical significance among groups was analyzed using ANOVA t-tests via the StatView program.\nTo evaluate muscle loss, the weights of dissected muscle tissues-including the tibialis anterior (TA), extensor digitorum longus (EDL), gastrocnemius (GA), and soleus (SOL)-were measured post-mortem and summarized in Table 9."}, "[3]": {"test_system": "MHC, FOXO3a, Atrogin-1 and MuRF-1 in C2C12 myotubes", "test": "Western blotting in the C2C12 starvation model", "assay_type": "cell-based, mouse", "conditions": "western blot", "protocol": "(§4) Culturing differentiated C2C12 myotubes in serum-free/low-glucose medium inhibits muscle protein synthesis and induces muscle atrophy through increased protein degradation. In this example, C2C12 myotubes differentiated as in Section 8-1 were cultured in serum-free/low-glucose medium to induce atrophy, and the cells were then treated with Dichotomine B under the following specific experimental conditions: • 1. Control group: Differentiated C2C12 myotubes were maintained in normal differentiation medium for 48 hours. • 2. Negative control group: Differentiated C2C12 myotubes were cultured in serum-free/low-glucose medium for 48 hours. • 3 Dichotomine B treatment groups: In the same condition as the negative control group, Dichotomine B was additionally administered at concentrations of 1 μM or 10 μM for 48 hours.\nWestern blotting was performed in the same manner as described in Example 7-5 to assess the expression levels of related proteins."}, "[4]": {"test_system": "C2C12 myotubes", "test": "In vitro starvation model (serum-free/low-glucose medium), C2C12 myotube diameter and MHC-stained area", "assay_type": "cell-based, mouse", "protocol": "as §4\nThis procedure was conducted in the same manner as described in Section 7-3.\nThe diameter and staining area of the myotubes were measured as described in Example 3-3. The mean and standard errors were calculated, and the results were organized into Table 6. Each experiment was performed in triplicate."}, "[5]": {"test": "Body weight of mice with 48-hour fasting", "assay_type": "in vivo, C57BL/6 male mice", "conditions": "10 mg/kg; for Body weight (g), End of Sample Administration: administered twice", "protocol": "as §1, §2\nSolid feed for laboratory animals (Woojung Bio, Hwaseong, Gyeonggi-do, Korea) was provided, and all treatments were administered during a fixed time window (10:00 AM to 12:00 PM).\nas §3\nIn the non-fasting group, body weight changes were within the normal range. However, in the fasting group (F group), a statistically significant reduction in body weight was observed after 48 hours of fasting (see Table 7)."}, "[6]": {"test_system": "C2C12 myotubes", "test": "Fusion index of MHC-positive multinucleated C2C12 myotubes after dexamethasone (MHC immunofluorescence)", "assay_type": "cell-based, mouse", "protocol": "The experiment was conducted similarly to Example 3-2. However, Dichotomine B was administered at concentrations of 10 μM and 30 μM.\nAfter completion of treatment, the culture media from each group was removed, and cells were washed twice with phosphate-buffered saline (PBS), fixed with 4% paraformaldehyde for 15 minutes, and washed three times with PBS. The cells were then permeabilized with 0.1% Triton X-100 for 10 minutes, washed twice with PBS, and blocked with 3% horse serum solution for 2 hours. Mouse anti-MHC antibody was diluted 1:100 in 3% BSA and incubated overnight at 4° C. The cells were washed three times with 0.1% PBST. Goat anti-mouse IgG-FITC secondary antibody (Thermo Fisher Scientific) was diluted 1:500 in 3% BSA and reacted for 1 hour at 37° C., followed by three washes with 0.1% PBST. Next, cells were stained with 1 μg/mL Hoechst 33342 solution for 10 minutes at room temperature. Cell imaging was performed using the JuLi™ system. MHC immunofluorescence was visualized in green, and cell nuclei stained with Hoechst 33342 were visualized in blue.\nFrom the results of Section 7-3, randomly selected multinucleated myotubes were analyzed to calculate the fusion index. The number of multinucleated myotubes (i.e., myotubes containing multiple nuclei) was counted and normalized to the total number of cells. The relative number of MHC-positive multinucleated myotubes was determined for each treatment group (see Table 4 and FIG. 13)."}, "[7]": {"test_system": "C57BL/6 male mice", "test": "Grip strength of mice after 48-hour fasting (grip strength meter)", "assay_type": "in vivo", "conditions": "fed mice, 10 mg/kg", "protocol": "as §1, §2, §3\nAfter the completion of the fasting period, grip strength was measured using a grip strength meter."}, "[8]": {"test_system": "MHC, Atrogin-1 and MuRF-1 in C2C12 myotubes", "test": "Western blotting of dexamethasone-treated C2C12 myotubes", "assay_type": "cell-based, mouse", "conditions": "dexamethasone model, western blot", "protocol": "C2C12 cells were seeded in a 6-well plate at a density of 1×10^5 cells per well. After differentiation was complete, each group was treated with dexamethasone and the test sample according to the respective experimental condition.\nCells were lysed using a lysis buffer containing LIPA buffer, protease inhibitors, and phosphatase inhibitors. A volume of 200 μL of the prepared lysis buffer was added per well, and the cells were collected using a cell scraper. The lysates were centrifuged at 13,000 rpm for 20 minutes, and the supernatants were collected. Protein concentrations were measured using the BCA protein assay method. Equal amounts of protein were separated using 8% SDS-PAGE.\nThe separated proteins were transferred to a nitrocellulose membrane, followed by blocking with 3% BSA buffer. The membranes were incubated with various primary antibodies (e.g., MHC, FoxO3a, MuRF1, GAPDH), followed by sequential washing, incubation with secondary antibodies, and further washing steps.\nProtein expression was detected using enhanced chemiluminescence (ECL), and images were acquired using the ChemiDoc imaging system. Quantification of each protein expression level was performed using ImageJ software."}, "[9]": {"conditions": "Dex 10 μM + compound 30 μM, 24 hours"}, "[10]": {"conditions": "starvation (serum free/low glucose medium) 48 hours + compound 1 μM"}, "[11]": {"conditions": "starvation (serum free/low glucose medium) 48 hours + compound 10 μM"}, "[12]": {"conditions": "fed mice (Feed + Dichotomine B)"}}, "note": "Where “and” joins values, the source holds several entries; their conditions need not be identical. Identical values can stand only once. Marks after values point to notes of the source that are not given here.", "data": [{"compound": "Glucodichotomine B", "values": [{"measurement": "C2C12 myotube diameter (% of control)", "setting": "[1]; [9]", "value": "102.0^b % of control"}, {"measurement": "prevention of dexamethasone-induced reduction in diameter of C2C12 myotubes (in words)", "setting": "[1]", "value": "effectively prevented"}]}, {"compound": "C[C@H](O)c1nc(C(=O)O)cc2c1[nH]c1ccccc12", "note": "[Dichotominee A, Dichotomine A]", "values": [{"measurement": "C2C12 myotube diameter (% of control)", "setting": "[1]; [9]", "value": "87.9 % of control"}]}, {"compound": "Shaftoside", "values": [{"measurement": "C2C12 myotube diameter (% of control)", "setting": "[1]; [9]", "value": "92.7^c % of control"}, {"measurement": "prevention of dexamethasone-induced reduction in diameter of C2C12 myotubes (in words)", "setting": "[1]", "value": "effectively prevented"}]}, {"compound": "O=C(O)c1cc2c([nH]c3ccccc32)c([C@@H](O)CO)n1", "note": "[Dichotomine B]", "values": [{"measurement": "Extensor Digitorum Longus (EDL) weight", "setting": "[2]; fed mice", "value": "0.012 ± 0.002", "unit": "g"}, {"measurement": "Gastrocnemius (GA) weight", "setting": "[2]; fed mice", "value": "0.169 ± 0.014", "unit": "g"}, {"measurement": "Soleus (SOL) weight", "setting": "[2]; fed mice", "value": "0.010 ± 0.001", "unit": "g"}, {"measurement": "Tibialis Anterior (TA) weight", "setting": "[2]; fed mice", "value": "0.058 ± 0.006", "unit": "g"}, {"measurement": "Extensor Digitorum Longus (EDL) weight", "setting": "[2]; starved mice, 48-hour fasting", "value": "0.014 ± 0.004", "unit": "g"}, {"measurement": "Gastrocnemius (GA) weight", "setting": "[2]; starved mice, 48-hour fasting", "value": "0.165 ± 0015", "unit": "g"}, {"measurement": "C2C12 myotube diameter (% of control)", "setting": "[1]; Dex 10 μM + compound 10 μM, 24 hours", "value": "97.9^b % of control"}, {"measurement": "C2C12 myotube diameter (% of control)", "setting": "[1]; [9]", "value": "98.2^b % of control and 100.6^b % of control"}, {"measurement": "prevention of dexamethasone-induced reduction in diameter of C2C12 myotubes (in words)", "setting": "[1]", "value": "effectively prevented"}, {"measurement": "effect on starvation-induced changes of MHC, FOXO3a, Atrogin-1 and MuRF-1 expression", "setting": "[3]", "value": "effectively reversed these effects"}, {"measurement": "C2C12 myotube diameter (% of control)", "setting": "[4]; [10]", "value": "98.6 + 9.3^b % of control"}, {"measurement": "MHC positive area (% of control)", "setting": "[4]; [10]", "value": "93.6 + 7.8^b % of control"}, {"measurement": "C2C12 myotube diameter (% of control)", "setting": "[4]; [11]", "value": "100.4 ± 10.8^b % of control"}, {"measurement": "MHC positive area (% of control)", "setting": "[4]; [11]", "value": "97.1 ± 8.4^b % of control"}, {"measurement": "Body weight (g), Start of Sample Administration", "setting": "[5]; [12]", "value": "21.080 ± 0.370", "unit": "g"}, {"measurement": "Body weight (g), End of Sample Administration", "setting": "[5]; [12]", "value": "21.400 ± 0.339", "unit": "g"}, {"measurement": "effect on body weight (in words)", "setting": "[5]; mice, 48-hour fasting", "value": "no significant effect on body weight"}, {"measurement": "Body weight (g), Start of Sample Administration", "setting": "[5]; starved mice (Starvation + Dichotomine B)", "value": "22.214 ± 0.701", "unit": "g"}, {"measurement": "Body weight (g), End of Sample Administration", "setting": "[5]; starved mice, 48-hour fasting", "value": "17.743 ± 0.885", "unit": "g"}, {"measurement": "fusion index of MHC-positive multinucleated C2C12 myotubes (% of control)", "setting": "[6]; Dex 10 μM + compound 10 μM", "value": "90.3^b % of control"}, {"measurement": "fusion index of MHC-positive multinucleated C2C12 myotubes (% of control)", "setting": "[6]; Dex 10 μM + compound 30 μM", "value": "92.3^b % of control"}, {"measurement": "fusion index of multinucleated C2C12 myotubes (in words)", "setting": "[6]; dexamethasone model", "value": "significantly improved the fusion index"}, {"measurement": "Grip Strength (gf)", "setting": "[7]", "value": "190 ± 11.7", "unit": "gf"}, {"measurement": "MHC expression", "setting": "[8]", "value": "increased in a concentration-dependent manner"}, {"measurement": "expression of Atrogin-1 and MuRF-1", "setting": "[8]", "value": "reduced"}]}, {"compound": "O=c1cc(-c2ccc(O)cc2)oc2c([C@@H]3O[C@H](CO)[C@@H](O)[C@H](O)[C@H]3O)c(O)c([C@@H]3OC[C@H](O)[C@H](O)[C@H]3O)c(O)c12", "note": "[Isoshaftoside]", "values": [{"measurement": "C2C12 myotube diameter (% of control)", "setting": "[1]; [9]", "value": "95.7^c % of control"}, {"measurement": "prevention of dexamethasone-induced reduction in diameter of C2C12 myotubes (in words)", "setting": "[1]", "value": "effectively prevented"}]}, {"compound": "C[C@@H]1C[C@H]2[C@@H]3CCC4=CC(=O)C=C[C@]4(C)[C@@]3(F)[C@@H](O)C[C@]2(C)[C@@]1(O)C(=O)CO", "note": "[Dex, Dexamethasone, reference compound]", "values": [{"measurement": "C2C12 myotube diameter (% of control)", "setting": "[1]; dexamethasone 10 μM alone, 24 hours (negative control group)", "value": "79.9^a % of control"}, {"measurement": "decrease of C2C12 myotube diameter compared to the control group", "setting": "[1]; dexamethasone 10 μM vs differentiation medium alone", "value": 21.1, "unit": "%"}, {"measurement": "fusion index of MHC-positive multinucleated C2C12 myotubes (% of control)", "setting": "[6]; Dex 10 μM alone", "value": "80.0^a % of control"}]}]}
